Experimental data: PMC6522930, “Design, synthesis and biological activity evaluation of a new class of 2,4-thiazolidinedione compounds as insulin enhancers” (Journal of Enzyme Inhibition and Medicinal Chemistry, 2019)

Experiments:
PPARα = biological target: T1, PPARα (Homo sapiens, UniProt Q07869); assay: In vitro activation of PPARα (cells containing PPAR, EC50); assay type: cell-based; conditions: n ≥ 8, 24 h; for EC50: read-out: EC50 ± SD PPARα
T1 construct: expressed in transfected cells
T1 sequence (Q07869 1-468): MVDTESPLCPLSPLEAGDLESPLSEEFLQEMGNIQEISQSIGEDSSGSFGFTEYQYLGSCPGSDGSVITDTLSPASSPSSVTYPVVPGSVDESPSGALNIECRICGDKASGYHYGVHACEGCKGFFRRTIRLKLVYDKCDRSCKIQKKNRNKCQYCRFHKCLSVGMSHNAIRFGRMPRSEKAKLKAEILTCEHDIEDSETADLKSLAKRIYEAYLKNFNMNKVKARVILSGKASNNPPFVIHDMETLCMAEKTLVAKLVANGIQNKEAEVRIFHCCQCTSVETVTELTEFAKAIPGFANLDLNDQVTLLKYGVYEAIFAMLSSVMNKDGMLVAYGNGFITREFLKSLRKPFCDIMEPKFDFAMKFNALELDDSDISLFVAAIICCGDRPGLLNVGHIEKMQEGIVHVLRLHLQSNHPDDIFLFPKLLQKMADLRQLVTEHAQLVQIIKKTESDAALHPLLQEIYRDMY
Method: (§1) According to the literature, the cells containing PPAR (α, β and γ) were obtained and transfected into 96-well plates the day before for cells culture. Transfection was performed according to the instructions of human PPAR enzyme-linked immunoassay. […] After 24 h, the drugs were added, and 20 μl of MTT was added to each well for another 6 h, and the cell liquid was collected by removing the culture medium, and 150 μl of DMSO was added to each hole. And the absorbance value (A) of each hole was measured under the wavelength of 460 nm.

PPARγ = biological target: T2, PPARγ (Homo sapiens, UniProt P37231); assay: In vitro activation of PPARγ (cells containing PPAR, EC50); assay type: cell-based; conditions: n ≥ 8; 24 h; read-out: EC50 ± SD PPARγ
T2 construct: expressed in transfected cells
T2 sequence (P37231 1-505): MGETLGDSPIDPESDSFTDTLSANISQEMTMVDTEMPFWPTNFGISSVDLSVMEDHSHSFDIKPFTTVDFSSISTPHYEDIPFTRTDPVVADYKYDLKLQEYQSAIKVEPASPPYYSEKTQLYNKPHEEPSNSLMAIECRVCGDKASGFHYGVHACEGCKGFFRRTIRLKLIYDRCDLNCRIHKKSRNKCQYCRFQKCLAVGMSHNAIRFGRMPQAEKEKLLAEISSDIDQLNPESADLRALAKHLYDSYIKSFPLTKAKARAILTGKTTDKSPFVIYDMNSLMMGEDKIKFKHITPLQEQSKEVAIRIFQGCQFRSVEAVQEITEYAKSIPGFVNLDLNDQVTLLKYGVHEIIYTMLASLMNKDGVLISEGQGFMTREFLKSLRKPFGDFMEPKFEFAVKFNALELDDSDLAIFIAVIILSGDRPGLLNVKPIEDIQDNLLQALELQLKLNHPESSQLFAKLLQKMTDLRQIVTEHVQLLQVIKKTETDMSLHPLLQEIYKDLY
Method: as §1

[1] = Lipid–water partition coefficient (log p); assay type: physicochemical
Excerpt: (§2) Drug in vitro experiment was one of the basic contents to evaluate drugs activity, and it was a necessary approach to research drugs. Drugs’ efficacy was often affected by some physical and chemical properties of compounds, such as lipid–water partition coefficient (log p), and dissociation degree (pKa). […] In Table 1, we could find that target compounds were fat-soluble. The fat-soluble compounds were favourable for drugs absorption, and drugs were easy to enter the cells. […] The pKa will affect the absorption and delivery of the drugs, different environmental (acid and alkalinity) medicine may be different, sometimes exists in the form of ions, sometimes exists in the form of molecules. Usually in the form of ion drugs has no effect. Therefore, it was necessary to study the dissociation degree (pKa) of drugs to study the pharmacodynamics. […] After the physical and chemical properties were studied, the biological activity was studied. […] After that, the target compounds 6a, 6e, 6f, 6g and 6i had good biological activity and were preliminarily screened out for further study on PPARγ receptor agonist activity (Figure 5).

[2] = Dissociation degree (pKa); assay type: physicochemical
Excerpt: as §2

healthy mice [3] = assay: Oral glucose tolerance test; assay type: in vivo
Method: In vivo experiments, glucose tolerance test, insulin tolerance test, cell survival experiment and acute toxicity were used as the test indicators (Tables 2, [3] and [4]). In Table 2, we chose dose 10 mg kg^−1 d^−1 and used oral administration. […] The mice were given the drug for 10 d, blood was collected from the tail vein of the mice before and after the sugar load for 1 h and 2 h, and the blood glucose level of the mice before and after the sugar load was measured by the glucometer.
(§3) (1) Glucose tolerance test: The healthy mice (20 ± 2 g) were selected. After 1 week of acclimation, mice with no body surface damage, good general condition and flexible reaction were selected for the experiment. The test compounds were dissolved with DMSO, and were given a dose volume of 0.2 ml 10 g^−1, and a dose of 10 mg kg^−1, and given by gavage (oral) once a day. […] The mice were given the drug for 10 d, and after the last dose, the mice fasted for 12 h. The next day, blood was collected from the tail vein of the mice before and after the sugar load for 1 h and 2 h, and the blood glucose level of the mice before and after the sugar load was measured by the glucometer. […] The 12 h of fasting after the last administration, blood was taken from the orbital venous plexus (used to measure the blood glucose level after fasting). Each group was immediately given a subcutaneous injection of 0.2 μg kg^−1 of insulin. After 1 h and 2 h of injection, blood was taken again. (3) Cell survival experiment: The HUVEC cells were inoculated on the 96-well plate at the initial concentration of 3 × 10^3 cells/holes, and 100 μl RPMI 1640 medium were added to each hole. At 5% CO2 and 37 °C cell cultivation in 24 h, every pore solution in different concentrations. […] And determine the hole under 460 nm wavelength absorbance value (A).

healthy mice [4] = assay: Insulin tolerance test (blood glucose under insulin load); assay type: in vivo
Method: as §3

HUVEC cells = assay: Cell survival experiment (cytotoxicity); assay type: cell-based; conditions: for Cell survival rate: HUVEC cells
Method: as §3

[5] = Acute toxicity test (LD50); assay type: in vivo; conditions: oral administration; n ≥ 3
PPARβ = biological target: T3, PPARβ (Homo sapiens, UniProt Q03181); assay: In vitro activation of PPARβ (cells containing PPAR, EC50); assay type: cell-based; conditions: n ≥ 8; 24 h; read-out: EC50 ± SD PPARβ
T3 construct: expressed in transfected cells
T3 sequence (Q03181 1-441): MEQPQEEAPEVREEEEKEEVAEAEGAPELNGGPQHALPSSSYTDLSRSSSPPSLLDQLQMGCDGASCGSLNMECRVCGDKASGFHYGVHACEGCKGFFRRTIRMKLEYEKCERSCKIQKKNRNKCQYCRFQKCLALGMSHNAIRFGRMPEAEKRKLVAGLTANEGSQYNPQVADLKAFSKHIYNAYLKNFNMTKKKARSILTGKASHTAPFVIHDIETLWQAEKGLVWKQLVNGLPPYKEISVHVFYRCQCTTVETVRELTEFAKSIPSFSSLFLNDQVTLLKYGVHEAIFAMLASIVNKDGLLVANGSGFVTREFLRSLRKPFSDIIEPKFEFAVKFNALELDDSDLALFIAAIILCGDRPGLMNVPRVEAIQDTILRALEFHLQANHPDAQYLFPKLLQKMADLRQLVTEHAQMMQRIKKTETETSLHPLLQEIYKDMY
Method: as §1

**Q.** Which “EC50 ± SD PPARα” value (PPARα) does the source give for `O=C1NC(=O)C(Cc2ccc(OCCNC(=O)c3ccccc3)cc2)S1` (stereo not shown) [Compound 6a, N-(2–(4-((2,4-dioxothiazolidin-5-yl)methyl)phenoxy)ethyl) benzamide] here?
**A.** ia^b

**Q.** And the EC50 (PPARγ)?
**A.** 0.08 ± 0.02 µM

**Q.** What about the logP [1] of the same compound?
**A.** 2.68

**Q.** What about the pKa [2] of the same compound?
**A.** 10.4

**Q.** And the “Blood glucose levels 1 h” value (healthy mice [3]; 10 mg kg^−1 d^−1 oral for 10 d, 1 h after sugar load)?
**A.** 6.342 ± 2.011 mmol/L

**Q.** And the “Blood glucose levels 2 h” value (healthy mice [3]; 10 mg kg^−1 d^−1 oral for 10 d, 2 h after sugar load)?
**A.** 3.368 ± 1.341 mmol/L

**Q.** What about the “Blood glucose levels 0 h” value (healthy mice [3]; 10 mg kg^−1 d^−1 oral for 10 d, fasted 12 h, before sugar load) of the same compound?
**A.** 3.376 ± 0.361 mmol/L

**Q.** And the “Effect in glucose tolerance test (in words)” value (healthy mice [3]; 10 mg kg^−1 d^−1 oral, 10 d)?
**A.** good resistance activation to glucose

**Q.** And the “Effect in insulin tolerance test (in words)” value (healthy mice [4]; 10 mg kg^−1 d^−1)?
**A.** good resistance activation to insulin

**Q.** What about the “Blood glucose levels 1 h” value (healthy mice [4]; 10 mg kg^−1 d^−1 for 15 d, 1 h after s.c. insulin 0.2 μg kg^−1) of the same compound?
**A.** 1.801 ± 0.531 mmol/L

**Q.** What about the “Blood glucose levels 2 h” value (healthy mice [4]; 10 mg kg^−1 d^−1 for 15 d, 2 h after s.c. insulin 0.2 μg kg^−1) of the same compound?
**A.** 2.498 ± 1.136 mmol/L

**Q.** What about the “Blood glucose levels 0 h” value (healthy mice [4]; 10 mg kg^−1 d^−1 for 15 d, fasted 12 h, before insulin) of the same compound?
**A.** 5.644 ± 1.035 mmol/L

**Q.** And the “Cytotoxic effect (in words)” value (HUVEC cells; 10^−3–10^−2 mol L^−1)?
**A.** no obvious cytotoxic effect

**Q.** What about the Cell survival rate (HUVEC cells; 10^−2 mol l^−1) of the same compound?
**A.** 93.1 ± 1.21%

**Q.** And the Cell survival rate (HUVEC cells; 10^−3 mol l^−1)?
**A.** 98.1 ± 0.28%

**Q.** And the Cell survival rate (HUVEC cells; 10^−4 mol l^−1)?
**A.** 99.3 ± 0.26%

**Q.** And the Cell survival rate (HUVEC cells; 10^−5 mol l^−1)?
**A.** 99.9 ± 0.11%

**Q.** What about the Cell survival rate (HUVEC cells; 10^−6 mol l^−1) of the same compound?
**A.** 100%

**Q.** What about the “LD50 ± SD” value [5] of the same compound?
**A.** 2313.6 ± 1.26 mg/kg

**Q.** For `O=C1NC(=O)C(Cc2ccc(OCCNC(=O)c3ccccc3)cn2)S1` (stereo not shown) [Compound 6b, N-(2-((6-((2,4-dioxothiazolidin-5-yl)methyl)pyridin-3-yl)oxy)ethyl) benzamide], which EC50 (PPARα) is on record?
**A.** 12.9 ± 1.29 µM

**Q.** What about the EC50 (PPARβ) of the same compound?
**A.** 9.18 ± 0.89 µM

**Q.** What about the EC50 (PPARγ) of the same compound?
**A.** 1.29 ± 0.53 µM

**Q.** And the logP [1]?
**A.** 1.77

**Q.** And the pKa [2]?
**A.** 10.4

**Q.** With `O=C1NC(=O)C(Cc2ccc(OCCNC(=O)c3ccccn3)cn2)S1` (stereo not shown) [Compound 6d, N-(2-((6-((2,4-dioxothiazolidin-5-yl)methyl)pyridin-3-yl)oxy)ethyl) picolinamide] as the compound, how does the EC50 (PPARβ) read?
**A.** 12.2 ± 1.21 µM

**Q.** What about the EC50 (PPARγ) of the same compound?
**A.** 3.22 ± 0.65 µM

**Q.** What about the logP [1] of the same compound?
**A.** 1.38

**Q.** And the pKa [2]?
**A.** 9.78

**Q.** What does the source list for `O=C1NC(=O)C(Cc2ccc(OCCNC(=O)c3ccc(O)cc3)cn2)S1` (stereo not shown) [Compound 6j, N-(2-((6-((2,4-dioxothiazolidin-5-yl)methyl)pyridin-3-yl)oxy)ethyl)-4-hydroxybenzamide]?
**A.** EC50 (PPARβ): 14.5 ± 1.2 µM; EC50 (PPARγ): 0.34 ± 0.15 µM; logP [1]: 2.11; pKa [2]: 9.01

**Q.** With `O=C1NC(=O)C(Cc2ccc(OCCNC(=O)c3ccc(O)cn3)cn2)S1` (stereo not shown) [Compound 6l, N-(2-((6-((2,4-dioxothiazolidin-5-yl)methyl)pyridin-3-yl)oxy)ethyl)-5-hydroxypicolinamide] as the compound, how does the EC50 (PPARα) read?
**A.** 9.34 ± 1.01 µM

**Q.** And the EC50 (PPARβ)?
**A.** 10.1 ± 1.12 µM

**Q.** And the EC50 (PPARγ)?
**A.** 2.68 ± 0.46 µM

**Q.** And the logP [1]?
**A.** 1.45

**Q.** What about the pKa [2] of the same compound?
**A.** 8.58
